Results on 2 compounds are retold here after article PMC10770036, “Novel dual inhibitors of PARP and HDAC induce intratumoral STING-mediated antitumor immunity in triple-negative breast cancer” (Cell Death & Disease, 2024).

Assay [1] concerns 4T1 tumors. As to the kind of experiment: Combination with anti-PD-L1 in syngeneic murine 4T1 model. Conditions: syngeneic 4T1 model; B102 15 mg/kg or B302 50 mg/kg every 2 days; anti-PD-L1 100 μg every 5 days; intraperitoneal. It counts as in vivo, mice. The text has this: MDA-MB-436 cells (5 × 10^6) were suspended in PBS and Matrigel (Corning) at a 1:1 ratio and orthotopically injected into the fat pads of 6- to 7-week-old female NOD-Prkdc^scid Il2rg^em1Smoc (M-NSG) mice from the Shanghai Model Organisms Center, Inc. MDA-MB-231 cells (5 × 10^6) were suspended in PBS orthotopically injected into the fat pads of 6- to 7-week-old female BALB/c nude mice from the Shanghai Model Organisms Center, Inc. 4T1 cells (1 × 10^6) were suspended in PBS and injected into the fat pads of 6- to 7-week-old male BALB/c mice from GemPharmatech Co., Ltd. […] For the MMTV-PyMT mice, fourteen 6-week-old female mice were randomly divided into two groups, and no blinding was performed. […] For the combination of B102 or B302 and anti-PD-L1 studies, the mice were randomly divided into four treatment groups without blinding: (1) vehicle; (2) B102 (15 mg/kg, every 2 days) or B302 (50 mg/kg, every 2 days); (3) anti-PD-L1 antibodies (100 μg, dissolved in PBS, every 5 days, Atezolizumab, Clone No.: 2B11D11, Shanghai Lollane biological technology Co., Ltd., Shanghai, China); or (4) combination of B102 or B302 and anti-PD-L1, all treatment via an intraperitoneal injection. Tumor size was monitored with a digital caliper, and tumor volume was calculated using the following equation: volume = (length × width^2)/2. […]

Assay [2] deals with MDA-MB-468 cells. Nature of the assay: MTT cell viability assay, MDA-MB-468. The settings on record: Homo sapiens, MDA-MB-468, 72 h, read-out: IC50 MDA-MB-468. (In general: Tetrazolium assays rely on reduction of a dye to a coloured formazan, in cell work by metabolically active cells.)
Protocol: (§1) The viability assay was measured by a 3-(4,5-dimethylthiazol-2-yl)−2,5-diphenyltetrazolium bromide (MTT) assay.
(§2) In brief, cells were seeded at a density of 6,000 cells in 96-well plates and cultured overnight. […] After aspiration of the medium, the formazan crystals were dissolved in 100 μL of DMSO. The absorbance at 490 nm was measured using a microplate reader (BioTek). All these analyses were performed at least three times.
Assay [3] relates to MCF-10A cells. As to the kind of experiment: MTT cell viability assay, MCF-10A. The settings on record: Homo sapiens, 72 h, read-out: IC50 MCF-10A.
Protocol: as §1, §2
For assay [4], the system named is MDA-MB-436 cells. As to the kind of experiment: MTT cell viability assay, MDA-MB-436. Conditions: Homo sapiens, MDA-MB-436, 72 h, read-out: IC50 MDA-MB-436.
Protocol: as §1, §2
Assay [5] relates to CCL5 and CXCL10 mRNA. As to the kind of experiment: RT-PCR of CCL5 and CXCL10 mRNA. The assay is classed as cell-based, human. The settings on record: MDA-MB-436 and MDA-MB-468 cells, 48 h. As for the experimental part: Total RNA was extracted using the Eastep Super Total RNA Extraction Kit (Promega, Charbonnières, France) according to the manufacturer’s protocol. Reverse transcription was performed using HyperScript RT SuperMix for qPCR (APExBIO, Houston, TX, USA). Gene expression was quantified with Hieff qPCR SYBR Green Master Mix (Yeason) on an ABI 7500 (Applied Biosystems, Grand Island, NY, USA). Data were then analyzed using the 2^-ΔΔCT method. The primers were designed and synthesized by Sangon Biotech, and the sequences are shown in Supporting Information Table S1.

Assay [6] concerns MDA-MB-436, MDA-MB-231, and MDA-MB-468 cells. As to the kind of experiment: Colony formation assay. The assay is classed as cell-based, human. Conditions: low dose. The method, then:
MDA-MB-231, MDA-MB-436 and MDA-MB-468 cells were seeded at a density of 2,000 cells in 6-well plates and cultured overnight. […] The cells were fixed with 4% paraformaldehyde (Merck) for 1 h at room temperature and stained with 0.1% crystal violet (Beyotime Biotechnology) for 30 min. Under an inverted phase contrast microscope (Leica Microsystems, Heidelberg, Germany), cell colonies were photographed at 5× magnification. All these analyses were performed at least three times.

For assay [7], the system named is MCF-7 cells. Nature of the assay: MTT cell viability assay, MCF-7. The settings on record: Homo sapiens, MCF7, 72 h, read-out: IC50 MCF-7.
Protocol: as §1, §2
Assay [8] deals with MDA-MB-231 cells. Nature of the assay: MTT cell viability assay, MDA-MB-231. The settings on record: Homo sapiens, MDA-MB-231, 72 h, read-out: IC50 MDA-MB-231.
Protocol: as §1, §2

A value given as a limit tells only on which side of the number the result lay.

Take “anti-PD-L1: anti-PD-L1 antibodies (Atezolizumab, Clone No.: 2B11D11), immune checkpoint blockade”: the tumor growth entry in assay [1] was “restricted tumor growth”.
In general, IC50 refers to the concentration needed to halve the response being measured. For the compound `O=C(c1cc(Cc2n[nH]c(=O)c3ccccc23)ccc1F)N1CCN(C(=O)C2CC2)CC1` [Olaparib, olaparib, reference compound], the IC50 in assay [2] is 14.5 ± 2.44 µM; in assay [3], 28 ± 3.48 µM; in assay [4], 8.08 ± 2.02 µM; in assay [7] it was above 25 µM; in assay [8] it was 3.24 ± 2.2 µM. In assay [5], the “mRNA levels of CCL5 and CXCL10” value is “rise in the mRNA levels of CCL5 and CXCL10”. Besides, the clonogenicity result is “reduced the clonogenicity” in assay [6] (BRCA1- and HRR-deficient MDA-MB-436 cells); “this effect was not observed” in assay [6] (MDA-MB-231 and MDA-MB-468 cells).
